Data published in patent US8415342B2, “Besifloxacin ophthalmic composition for the treatment or control of infection” (Bausch & Lomb Incorporated, priority 2008, dated 2013).
≈ marks a conversion by molar mass, not a printed value. Read-outs that look alike come from different tables or passages of the source.

Tests used:
Assay type in all cases: cell-based
Anaerobic Bacteria = assay: MIC against anaerobic bacteria (Table 7); details: for % S (percent of susceptible isolates): CLSI breakpoints
Streptococcus agalactiae = assay: MIC, CLSI broth microdilution, clinical isolates; details: Streptococcus agalactiae (N = 100)
Streptococcus pneumoniae = assay: MIC, CLSI broth microdilution, clinical isolates
Streptococcus pyogenes = assay: MIC, CLSI broth microdilution, clinical isolates; details: Streptococcus pyogenes (N = 101)
[1] = system: Lancefield group C, F, G streptococci; assay: MIC, CLSI broth microdilution, clinical isolates; details: G streptococci (N = 50)
Viridans streptococci = assay: MIC, CLSI broth microdilution, clinical isolates; details: Viridans streptococci (N = 156)
[2] = Bacteroides fragilis, Bacteroides fragilis (N = 20), read-out: MIC50
[3] = Bacteroides fragilis, Bacteroides fragilis (N = 20), read-out: MIC90
[4] = Clostridium perfringens (N = 21)
[5] = Clostridium perfringens, Clostridium perfringens (N = 21)
[6] = Fusobacterium spp. (N = 21), read-out: MIC50
[7] = Fusobacterium spp. (N = 21), read-out: MIC90
[8] = Propionibacterium acnes (N = 21)
[9] = Streptococcus pneumoniae (PISP, N = 2)
[10] = Streptococcus pneumoniae (PSSP, N = 31)
[11] = Streptococcus pneumoniae (all phenotypes, N = 35)

With `CCC[C@@H]1C[C@@H](C(=O)N[C@@H]([C@H]2O[C@H](SC)[C@H](O)[C@@H](O)[C@H]2O)[C@H](C)Cl)N(C)C1` [Clindamycin] the MIC50 (Anaerobic Bacteria) was at most 0.03 µg/mL, the MIC90 (Anaerobic Bacteria) was over 8 µg/mL and the “% S (percent of susceptible isolates)” value (Anaerobic Bacteria; Bacteroides fragilis (N = 20)) was 65.0%. The MIC50 (Anaerobic Bacteria; [2]) was 2 µg/mL (≈ 4.71 µM), the MIC90 (Anaerobic Bacteria; [3]) was over 8 µg/mL and the “MIC Range” value (Anaerobic Bacteria; [4]) was 0.06 to 4 µg/mL. The “% S (percent of susceptible isolates)” value (Anaerobic Bacteria; [4]) was 85.7%, the MIC50 (Anaerobic Bacteria; [5]) was 2 µg/mL (≈ 4.71 µM) and the MIC90 (Anaerobic Bacteria; [5]) was 4 µg/mL (≈ 9.41 µM). For the same compound, the MIC50 (Anaerobic Bacteria; Cutibacterium acnes) was 0.06 µg/mL (≈ 0.141 µM), the MIC90 (Anaerobic Bacteria; Cutibacterium acnes) was 0.12 µg/mL (≈ 0.282 µM) and the “MIC Range” value (Anaerobic Bacteria; Fusobacterium spp. (N = 21)) was 0.06 to 8 µg/mL. For the same compound, the “% S (percent of susceptible isolates)” value (Anaerobic Bacteria; Fusobacterium spp. (N = 21)) was 95.2%, the MIC50 (Anaerobic Bacteria; [6]) was 0.06 µg/mL (≈ 0.141 µM) and the MIC90 (Anaerobic Bacteria; [7]) was 2 µg/mL (≈ 4.71 µM). The “% S (percent of susceptible isolates)” value (Anaerobic Bacteria; Prevotella spp. (N = 20)) was 85.0%, the “MIC Range” value (Anaerobic Bacteria; [8]) was “≦0.03-2 μg/mL” and the “% S (percent of susceptible isolates)” value (Anaerobic Bacteria; [8]) was 100.0%.
`Cc1ncc([N+](=O)[O-])n1CCO` [Metronidazole] was tested, and the MIC50 (Anaerobic Bacteria) was 4 µg/mL (≈ 23.4 µM), the MIC90 (Anaerobic Bacteria) was 4 µg/mL (≈ 23.4 µM) and the “MIC Range” value (Anaerobic Bacteria; Bacteroides fragilis (N = 20)) was 2-2 μg/mL. For the same compound, the “% S (percent of susceptible isolates)” value (Anaerobic Bacteria; Bacteroides fragilis (N = 20)) was 100.0%, the MIC50 (Anaerobic Bacteria; [2]) was 2 µg/mL (≈ 11.7 µM) and the MIC90 (Anaerobic Bacteria; [3]) was 2 µg/mL (≈ 11.7 µM). The “MIC Range” value (Anaerobic Bacteria; [4]) was 1 to 4 µg/mL, the “% S (percent of susceptible isolates)” value (Anaerobic Bacteria; [4]) was 100.0% and the MIC50 (Anaerobic Bacteria; [5]) was 2 µg/mL (≈ 11.7 µM). It also gave an MIC90 (Anaerobic Bacteria; [5]) of 4 µg/mL (≈ 23.4 µM), an MIC50 (Anaerobic Bacteria; Cutibacterium acnes) of over 16 µg/mL and an MIC90 (Anaerobic Bacteria; Cutibacterium acnes) of over 16 µg/mL. The “MIC Range” value (Anaerobic Bacteria; Fusobacterium spp. (N = 21)) was “≦0.12-2 μg/mL”, the “% S (percent of susceptible isolates)” value (Anaerobic Bacteria; Fusobacterium spp. (N = 21)) was 100.0% and the MIC50 (Anaerobic Bacteria; [6]) was 0.25 µg/mL (≈ 1.46 µM). For the same compound, the MIC90 (Anaerobic Bacteria; [7]) was 1 µg/mL (≈ 5.84 µM), the “MIC Range” value (Anaerobic Bacteria; Prevotella spp. (N = 20)) was 0.25 to 8 µg/mL and the “% S (percent of susceptible isolates)” value (Anaerobic Bacteria; Prevotella spp. (N = 20)) was 100.0%. For the same compound, the “% S (percent of susceptible isolates)” value (Anaerobic Bacteria; [8]) was 0.0%.
For Penicillin, the “% S” value (Streptococcus agalactiae) was 100.0%, the MIC50 (Streptococcus agalactiae) was 0.03 µg/mL and the MIC90 (Streptococcus agalactiae) was 0.06 µg/mL. For the same compound, the “MIC Range” value (Streptococcus agalactiae) was “≦0.015-0.06 μg/mL”, the “% S” value (Streptococcus pneumoniae; [9]) was 0.0% and the “MIC Range” value (Streptococcus pneumoniae; [9]) was 4-4 μg/mL. For the same compound, the “% S” value (Streptococcus pneumoniae; Streptococcus pneumoniae (PRSP, N = 2)) was 0.0%, the “% S” value (Streptococcus pneumoniae; [10]) was 100.0% and the MIC50 (Streptococcus pneumoniae; [10]) was “≦0.015 μg/mL”. For the same compound, the MIC90 (Streptococcus pneumoniae; [10]) was 0.25 µg/mL, the “MIC Range” value (Streptococcus pneumoniae; [10]) was “≦0.015-0.5 μg/mL” and the “% S” value (Streptococcus pneumoniae; [11]) was 88.6%. The MIC50 (Streptococcus pneumoniae; [11]) was “≦0.015 μg/mL”, the MIC90 (Streptococcus pneumoniae; [11]) was 4 µg/mL and the “% S” value (Streptococcus pyogenes) was 100.0%. For the same compound, the MIC50 (Streptococcus pyogenes) was “≦0.015 μg/mL”, the MIC90 (Streptococcus pyogenes) was “≦0.015 μg/mL” and the “MIC Range” value (Streptococcus pyogenes) was “≦0.015-0.06 μg/mL”. For the same compound, the “% S” value [1] was 100.0%, the MIC50 [1] was “≦0.015 μg/mL” and the MIC90 [1] was 0.06 µg/mL. The “MIC Range” value [1] was “≦0.015-0.06 μg/mL”, the “% S” value (Viridans streptococci) was 76.3% and the MIC50 (Viridans streptococci) was 0.06 µg/mL. For the same compound, the MIC90 (Viridans streptococci) was 1 µg/mL.
